Measurements: patent US20090054403A1, “Treatment of Post-Traumatic Stress Disorder” (priority 2007, published 2009)
Read-outs that look alike come from different tables or passages of the source.

Experiment: Pharmacokinetics after single oral dose in rats (plasma and brain)
Assay type: in vivo, rats (Crl: CD BR Vaf+)
Conditions: for half-life: Crl: CD BR Vaf+, rat, plasma, read-out: elimination half-life (converted)
Description: Male rats (Crl: CD BR Vaf+) weighing 180-220 g were fasted overnight before dosing and until 4 hr after dosing. Doses were formulated in water containing 2% 1-hydroxypropyl methylcellulose (50 centipoises viscosity), 1% benzyl alcohol, and 0.6% Tween 80 (all obtained from Sigma Chemical Company). Concentration of drug in the dose solutions was 5, 15, and 50 mg/ml for the 10, 30, and 100 mg/kg doses, respectively, and was verified by liquid chromatography (LC). The 5 mg/ml dose was a clear solution and the higher concentrations were a translucent suspension. Dose volumes were 2.0 ml/kg. At various times after dosing, samples of blood were obtained by cardiac puncture with heparinized syringes, and plasma was prepared by centrifugation. Brains of rats were surgically excised, and all samples were frozen at −20° C. until analysis.
Aliquots of plasma (0.05 or 0.5 ml) were mixed with internal standard (50 μl of methanol containing 5 μg/ml a monofluoro analog of nepicastat, and 5 mg/ml dithiothreitol). Samples were mixed with 200 mM sodium phosphate buffer, pH 7.0, (0.5 ml) and extracted with 3 ml of ethyl acetate/hexane (1/1, v/v). The organic phase containing analytes was back extracted with 250 μl of 250 mM acetic acid and 100 μl aliquots of the aqueous phase were assayed by LC. The LC system used a Keystone Hypersil BDS 15 cm C8 column at ambient temperature. Mobile phase A was 12.5 mM potassium phosphate, pH 3.0, with 5 mM dodecanesulfonic acid and mobile phase B was acetonitrile. Solvent composition was 40% B and was pumped at a flow rate of 1 ml/min. Detection was by UV absorption at 261 nm. Concentrations of analytes were determined from a standard curve generated from the analysis of plasma from untreated rats fortified with known concentrations of analyte. Plasma concentration data are expressed as μg (free base) per ml.
Brains were rinsed briefly with saline, blotted on a paper towel, then weighed (1.5-2.0 g). Internal standard was added (50 μl of methanol containing 20 μg/ml a monofluoro analog of nepicastat), and brains were homogenized in 5 ml of 200 mM sodium phosphate, pH 7.0, containing 0.5 mg/ml dithiothreitol. Aliquots of homogenate (2 ml) were extracted with 10 ml of ethyl acetate/hexane (1/1, v/v). The organic phase was gently back extracted with 150 μl of 250 mM acetic acid.
Following addition of 100 μl of methanol to the aqueous phase (to disperse any emulsion), 100 μl aliquots were assayed by LC as described for plasma. Level in brain are expressed as μg (free base) per g of brain tissue.
Pharmacokinetic parameters were calculated from mean plasma concentrations. Plasma half-life (T1/2) was calculated as 0.693/β, where β is the elimination rate constant determined by linear regression of the log plasma concentration vs. time data within the terminal linear portion of the data. Areas under the plasma concentration vs. time curve (AUC) from zero to the time of the last quantifiable plasma concentrations were calculated by the trapezoidal rule. AUC from zero to infinity (AUCtotal) was calculated as:
AUCtotal=AUC(0−Clast)+Clastβ where Clast is the last quantifiable plasma concentration.

For Cl.NCc1c[nH]c(=S)n1[C@H]1CCc2c(F)cc(F)cc2C1 [nepicastat, (S)-5-Aminomethyl-1-(5,7-difluoro-1,2,3,4-tetrahydronaphth-2-yl)-2,3-dihydro-2-thioxo-1H-imidazole hydrochloride], the “concentrations in brain relative to plasma” value (10 mg/kg oral, male rats, from 2 hr following dosing onward) was “exceeded those in plasma”, the “plasma AUCtotal in female rats relative to male rats (higher by)” value (30 mg/kg oral) was 77% and the “relationship between AUCtotal and dose” value (10-100 mg/kg oral, male rats) was “linear”. The half-life (10 mg/kg oral, male rats) was 1.7 h, the half-life (30 mg/kg oral, male rats) was 2.09 h and the half-life (100 mg/kg oral, male rats) was 3.88 h.
